Data taken from patent publication US20230065368A1, “INHIBITING UBIQUITIN SPECIFIC PEPTIDASE 9X” (FORMA Therapeutics, Inc., priority 2018, published 2023).

Target: USP9X (Homo sapiens, UniProt Q93008)
Experiment: Biochemical Assay for USP9X Inhibition (Ub-Rh110 fluorescence)
Conditions: Biochemical Assay of Example 1, 25 nM Ub-Rh110, 30 min preincubation, Table 23 additional compounds
Method: Biochemical Assay for USP9X Inhibition
Concentration and incubation times were optimized for the maximal signal-to-background while maintaining initial velocity conditions at a fixed substrate concentration (<<Km). […] To assay plates (pre-stamped with compound) was added 3 μL 2× Enzyme. The enzyme was preincubated for 30 minutes and then treated with 3 μL of 2× Substrate. […] The slope (best fit linear regression) of the five reads was used to normalize for inhibition. For all assays, data are reported as percent inhibition compared with control wells based on the following equation: […], wherein FLU is measured Fluorescence, AveLow is average Fluorescence of no enzyme control (n=64), and AveHigh is average Fluorescence of DMSO control (n=64). IC50 values are determined by curve fitting of the standard 4 parameter logistic fitting algorithm included in the Activity Base software package: IDBS XE Designer Model205. Data are fitted using the Levenburg Marquardt algorithm.

Sequence of USP9X (Q93008 whole entry, species assumed): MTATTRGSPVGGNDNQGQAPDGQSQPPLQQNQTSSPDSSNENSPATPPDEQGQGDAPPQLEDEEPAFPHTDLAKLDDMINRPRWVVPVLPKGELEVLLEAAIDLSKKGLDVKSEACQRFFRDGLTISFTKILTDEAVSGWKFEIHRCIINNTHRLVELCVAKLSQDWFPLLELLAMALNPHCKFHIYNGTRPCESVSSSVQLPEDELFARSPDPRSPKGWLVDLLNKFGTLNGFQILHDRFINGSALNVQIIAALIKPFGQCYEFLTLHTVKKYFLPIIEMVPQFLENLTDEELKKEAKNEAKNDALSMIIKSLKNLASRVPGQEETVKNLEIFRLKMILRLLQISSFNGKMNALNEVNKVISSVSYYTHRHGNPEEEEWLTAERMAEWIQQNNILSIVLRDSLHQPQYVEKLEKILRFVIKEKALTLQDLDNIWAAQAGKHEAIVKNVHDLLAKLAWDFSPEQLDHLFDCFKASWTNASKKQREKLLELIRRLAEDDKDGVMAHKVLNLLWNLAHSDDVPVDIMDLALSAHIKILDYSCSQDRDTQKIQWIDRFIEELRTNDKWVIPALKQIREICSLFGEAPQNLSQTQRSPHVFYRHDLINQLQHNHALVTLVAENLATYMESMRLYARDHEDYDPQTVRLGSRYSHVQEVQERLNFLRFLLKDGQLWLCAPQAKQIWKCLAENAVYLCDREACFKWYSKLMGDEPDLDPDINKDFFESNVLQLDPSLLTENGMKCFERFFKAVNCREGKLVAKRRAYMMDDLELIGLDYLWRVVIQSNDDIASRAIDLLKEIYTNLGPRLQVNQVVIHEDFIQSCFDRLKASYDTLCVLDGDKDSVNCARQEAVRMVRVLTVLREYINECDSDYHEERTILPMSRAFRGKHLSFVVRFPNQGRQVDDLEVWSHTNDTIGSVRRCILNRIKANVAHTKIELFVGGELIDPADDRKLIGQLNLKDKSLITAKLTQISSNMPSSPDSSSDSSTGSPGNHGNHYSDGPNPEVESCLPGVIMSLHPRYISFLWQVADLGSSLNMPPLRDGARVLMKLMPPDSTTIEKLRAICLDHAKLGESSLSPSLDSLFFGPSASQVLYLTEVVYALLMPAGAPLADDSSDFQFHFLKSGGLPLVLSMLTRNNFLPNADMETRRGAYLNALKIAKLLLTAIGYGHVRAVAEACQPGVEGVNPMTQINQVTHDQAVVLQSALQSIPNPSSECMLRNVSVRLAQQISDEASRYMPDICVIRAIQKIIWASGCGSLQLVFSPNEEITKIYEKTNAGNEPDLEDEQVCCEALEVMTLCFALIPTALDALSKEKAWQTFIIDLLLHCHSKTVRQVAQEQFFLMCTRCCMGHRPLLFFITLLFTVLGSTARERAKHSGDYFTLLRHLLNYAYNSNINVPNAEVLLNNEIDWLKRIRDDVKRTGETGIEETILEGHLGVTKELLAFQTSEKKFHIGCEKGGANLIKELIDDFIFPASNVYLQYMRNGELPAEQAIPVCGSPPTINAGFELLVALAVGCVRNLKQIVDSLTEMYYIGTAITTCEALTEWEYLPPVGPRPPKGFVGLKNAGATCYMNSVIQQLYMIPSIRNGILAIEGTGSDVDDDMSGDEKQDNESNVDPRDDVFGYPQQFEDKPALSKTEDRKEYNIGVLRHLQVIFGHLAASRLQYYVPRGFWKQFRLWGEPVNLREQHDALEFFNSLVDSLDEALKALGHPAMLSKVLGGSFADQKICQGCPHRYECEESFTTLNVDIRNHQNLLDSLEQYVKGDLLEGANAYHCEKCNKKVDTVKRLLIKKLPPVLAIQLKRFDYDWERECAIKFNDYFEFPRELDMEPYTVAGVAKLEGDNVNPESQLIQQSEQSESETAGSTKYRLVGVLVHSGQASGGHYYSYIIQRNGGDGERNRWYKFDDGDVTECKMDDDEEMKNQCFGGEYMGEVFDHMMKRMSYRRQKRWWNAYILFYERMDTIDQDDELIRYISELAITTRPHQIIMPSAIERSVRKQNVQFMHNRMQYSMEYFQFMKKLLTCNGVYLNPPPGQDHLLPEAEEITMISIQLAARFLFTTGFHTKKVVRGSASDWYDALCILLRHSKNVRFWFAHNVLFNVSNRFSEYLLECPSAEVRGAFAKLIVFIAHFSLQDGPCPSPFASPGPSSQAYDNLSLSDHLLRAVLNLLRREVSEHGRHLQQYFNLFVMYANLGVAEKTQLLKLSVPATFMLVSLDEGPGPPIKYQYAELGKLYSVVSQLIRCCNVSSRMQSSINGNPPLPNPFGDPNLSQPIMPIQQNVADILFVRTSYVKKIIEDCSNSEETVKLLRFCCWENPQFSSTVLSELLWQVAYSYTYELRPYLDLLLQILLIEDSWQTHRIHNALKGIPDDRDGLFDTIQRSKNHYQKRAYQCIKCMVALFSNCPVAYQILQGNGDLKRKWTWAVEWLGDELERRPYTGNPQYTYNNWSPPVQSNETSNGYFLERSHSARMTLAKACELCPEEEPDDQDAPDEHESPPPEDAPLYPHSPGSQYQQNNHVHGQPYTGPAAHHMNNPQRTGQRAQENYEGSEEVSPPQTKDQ

O=C([C@@H](CO)c1ccccc1)N1CC2=C(C1)CN(S(=O)(=O)c1cnc3c(c1)OCCO3)C2 [Example C-7]
IC50: 200 to 2000 nM

O=C([C@H](CO)c1ccccc1)N1CC2=C(C1)CN(S(=O)(=O)c1cnc3c(c1)OCCO3)C2 [Example C-8]
IC50: 2000 to 25000 nM
